Blank lines part the entries; values can stand above or below the molecule they belong to. Calls of active or inactive are those of the source.
Experiments:
[1] = ZM109 Env clade C HIV-1 fusion inhibitors, dose response, HeLa effector, CEM target cells, luciferase, cherry-pick (AID 652058); format: functional, cell-based
[2] = cytotoxicity in HEK-293T cells, dose response, cytotoxicity control for TCR NF-kB inhibitor project, luminescence, T-cell screen hits (AID 489026); format: functional, cell-based;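 also: cells exposed to compound about 14 hours before the viability readout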
[3] = LGR2 antagonists, dose response, cell-based, HEK293, CRE-luciferase reporter, cherry pick, set 2 (AID 743343); format: functional;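 also: transfected cells were stimulated with diluted bursicon conditioned medium after compound addition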
[4] = inhibitors of clade B AD8 Env fusion, dose response, cell-based, cherry-pick (AID 652062); format: functional;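 also: luciferase signal from cell-cell fusion driven by HIV-1 clade B AD8 Env; potency is for inhibitors of fusion seen as a drop in luminescence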
[5] = inhibitors of HIV Env-driven cell fusion, dose response, cherry-pick (AID 652057); format: functional, cell-based
[6] = target: T1, Microphthalmia-associated transcription factor (Homo sapiens, UniProt O75030); assay: TRPM1 promoter luciferase signal decrease, dose response, MITF inhibitor project, cell-based, SK-MEL-5, cherry-picked, set 3 (AID 493073); format: functional
T1 sequence (O75030 whole entry): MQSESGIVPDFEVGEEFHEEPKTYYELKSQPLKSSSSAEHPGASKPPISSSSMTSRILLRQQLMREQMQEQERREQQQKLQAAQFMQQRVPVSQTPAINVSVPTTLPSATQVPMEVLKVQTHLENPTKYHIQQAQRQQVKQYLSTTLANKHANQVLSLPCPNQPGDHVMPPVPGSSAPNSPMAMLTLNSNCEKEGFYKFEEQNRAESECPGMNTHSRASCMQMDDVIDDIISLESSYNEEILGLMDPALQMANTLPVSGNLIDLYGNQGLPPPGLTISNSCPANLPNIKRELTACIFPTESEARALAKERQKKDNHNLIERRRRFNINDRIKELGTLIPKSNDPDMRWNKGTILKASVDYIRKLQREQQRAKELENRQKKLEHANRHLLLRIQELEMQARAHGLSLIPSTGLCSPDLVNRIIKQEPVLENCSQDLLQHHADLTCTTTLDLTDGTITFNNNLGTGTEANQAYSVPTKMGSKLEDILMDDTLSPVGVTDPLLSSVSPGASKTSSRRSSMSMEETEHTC

[7] = MC4R antagonists, dose response, counter-screen for LGR2 antagonist project, cell-based, plate reader, cherry pick (AID 743444); format: functional;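 also: transfected HEK 293 cells stimulated with alpha-MSH peptide; potency of inhibitors of the alpha-MSH evoked signal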
[8] = off-target signal loss in HeLa-CEM21 co-culture – HeLa F-luc CTL cells, cherry-picked, counter-screen for HIV-1 Env fusion inhibitor project, dose response (AID 652040); format: functional, cell-based;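 also: potency for signal decrease marking cytotoxic or nonspecific inhibition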
[9] = HeLa 2N DNA content increase, dose response, cell-based, IC50 (AID 1117349); format: functional
[10] = cytotoxicity toward HT-29 cells – cell-based, CellTiter-Glo luminescence, IC50, dose response (AID 1117330); format: functional
[11] = HCT116 cell viability decrease, GSK3B pretreatment – CellTiter-Glo, IC50, dose response (AID 1117339); format: functional; conditions: HCT-116
[12] = RKO cell viability reduction, dose response, CellTiter-Glo luminescence (AID 1117322); format: functional
[13] = cytotoxicity toward Colo320 cells – cell-based, CellTiter-Glo luminescence, IC50, dose response (AID 1117334); format: functional; conditions: COLO 320
[14] = cytotoxicity toward HCT116 cells – cell-based, CellTiter-Glo luminescence, IC50, dose response (AID 1117332); format: functional; conditions: HCT-116
[15] = HeLa 4N DNA content increase, dose response, cell-based, IC50 (AID 1117351); format: functional
cells [16] = format: functional, cell-based
[17] = target: T2, Trace amine-associated receptor 1 (Homo sapiens, UniProt Q96RJ0); assay: Fluorescence-based cell-based high throughput dose response assay to identify agonists of the human trace amine associated receptor 1 (TAAR1).; format: functional
T2 sequence (Q96RJ0 whole entry): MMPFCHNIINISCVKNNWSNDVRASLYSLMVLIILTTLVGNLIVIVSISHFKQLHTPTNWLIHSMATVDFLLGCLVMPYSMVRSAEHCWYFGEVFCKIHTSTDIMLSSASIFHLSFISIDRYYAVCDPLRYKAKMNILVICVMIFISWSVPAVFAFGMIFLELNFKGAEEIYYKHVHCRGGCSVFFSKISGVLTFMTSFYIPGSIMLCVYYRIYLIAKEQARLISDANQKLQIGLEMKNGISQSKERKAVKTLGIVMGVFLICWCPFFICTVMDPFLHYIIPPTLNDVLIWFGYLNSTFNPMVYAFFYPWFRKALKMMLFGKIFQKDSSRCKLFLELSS

cells [18] = format: functional, cell-based; remark: listed apart in the source
[19] = target: T2, Trace amine-associated receptor 1; assay: Counterscreen for agonists of the human trace amine associated receptor 1 (hTAAR1): Fluorescence-based cell-based high throughput dose response assay to identify hTAAR1 agonist that also desensitize TAAR1 receptor response.; format: functional
Large T antigen = Large T antigen (Simian virus 40, UniProt P03070); format: functional, Betapolyomavirus macacae;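 also: Confirmatory-stage PubChem screen for compounds that inhibit SV40 T antigen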
[20] = target: NAD-dependent protein deacylase sirtuin-5, mitochondrial (Homo sapiens, UniProt Q9NXA8); assay: SIRT5 desuccinylase inhibitors, dose response, biochemical, fluorescence imaging, cherry-pick, set 5 (AID 720591);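 also: desuccinylation of succinyl peptide AMC substrate read as fluorescence after trypsin release; potency of inhibitors that lower fluorescence and may act on trypsin instead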
[21] = P. falciparum Dd2 growth inhibitors, dose response, SYBR Green, dry powder samples (AID 1159566); format: functional, cell-based;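 also: potency for growth inhibition with lower SYBR green DNA signal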
[22] = HepG2 cell cytotoxicity, dose response, cytotoxicity control, plate reader, dry powder samples (AID 1159569); format: functional, cell-based;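 also: inhibitor potency with signal falling toward the positive control level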
[23] = P. falciparum 3D7-ScDHODH growth inhibitors, dose response, SYBR Green, dry powder samples (AID 1159570); format: functional, cell-based;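 also: parasite growth measured after 72 hours of compound exposure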
[24] = P. falciparum Dd2 growth inhibitors, dose response, SYBR Green, cherry-picked samples (AID 1159567); format: functional, cell-based
[25] = HepG2 cell cytotoxicity, dose response, cytotoxicity control, cherry-picked samples (AID 1159577); format: functional, cell-based
[26] = P. falciparum ATP4 D1247Y mutant growth inhibitors, dose response, NITD609-resistant line, SYBR Green, dry powder (AID 1159571); format: functional, cell-based;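 also: parasites synchronized at ring stage by sorbitol before testing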
INS1 = assay: beta cell apoptosis inhibitors, cytokine rescue, dose response, luminescence, retest (AID 449756); format: functional, cell-based; conditions: Rattus norvegicus;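 also: cell death triggered by IL-1 beta plus TNF-alpha plus IFN-gamma mixture; protective hits raise ATP signal compared with cytokine alone wells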
[27] = HEK293 cell cytotoxicity, dose response, cytotoxicity control, plate reader, cherry-picked samples (AID 743446); format: functional, cell-based
[28] = A549 cell cytotoxicity, dose response, cytotoxicity control, plate reader, cherry-pick, antagonist series (AID 743412); format: functional, cell-based
[29] = HepG2 cell cytotoxicity, dose response, cytotoxicity control, plate reader, cherry-pick, antagonist series (AID 743416); format: functional, cell-based
[30] = T. cruzi growth inhibition in host cells, dose response, cell-based, plate reader, dry powder, set 2 (AID 652275); format: functional

Chain of NAD-dependent protein deacylase sirtuin-5, mitochondrial (Q9NXA8 whole entry): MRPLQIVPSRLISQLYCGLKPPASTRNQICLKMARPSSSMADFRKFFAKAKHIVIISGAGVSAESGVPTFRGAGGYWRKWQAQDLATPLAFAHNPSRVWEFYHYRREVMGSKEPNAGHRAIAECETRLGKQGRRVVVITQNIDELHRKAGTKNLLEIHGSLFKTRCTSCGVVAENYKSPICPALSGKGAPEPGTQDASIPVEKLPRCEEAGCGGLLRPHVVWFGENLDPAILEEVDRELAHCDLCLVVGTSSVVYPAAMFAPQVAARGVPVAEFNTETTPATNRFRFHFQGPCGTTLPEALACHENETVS
Chain of Large T antigen (P03070 whole entry): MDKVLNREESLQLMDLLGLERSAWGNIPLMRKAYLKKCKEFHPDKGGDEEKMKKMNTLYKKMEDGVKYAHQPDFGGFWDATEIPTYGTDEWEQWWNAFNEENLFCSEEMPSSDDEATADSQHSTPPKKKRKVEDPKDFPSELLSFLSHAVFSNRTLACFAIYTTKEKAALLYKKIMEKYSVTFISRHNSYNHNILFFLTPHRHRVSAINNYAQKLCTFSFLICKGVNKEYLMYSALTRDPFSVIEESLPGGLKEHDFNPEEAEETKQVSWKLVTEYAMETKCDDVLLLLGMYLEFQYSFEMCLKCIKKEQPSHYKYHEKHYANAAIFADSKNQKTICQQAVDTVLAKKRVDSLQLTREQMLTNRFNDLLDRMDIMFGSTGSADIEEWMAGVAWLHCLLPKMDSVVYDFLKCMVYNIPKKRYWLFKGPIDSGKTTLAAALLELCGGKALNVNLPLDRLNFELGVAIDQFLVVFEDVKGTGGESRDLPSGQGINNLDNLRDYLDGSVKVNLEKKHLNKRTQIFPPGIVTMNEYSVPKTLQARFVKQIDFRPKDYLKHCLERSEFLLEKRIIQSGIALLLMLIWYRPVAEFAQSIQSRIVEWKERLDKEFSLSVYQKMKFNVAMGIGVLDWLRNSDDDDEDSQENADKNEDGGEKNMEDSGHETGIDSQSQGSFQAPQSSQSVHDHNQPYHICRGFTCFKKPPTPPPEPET

Structure (SMILES): CCn1c(C)cc(C(=O)CN2C(=O)c3ccccc3S2(=O)=O)c1C
AC50 [1]: 7.25 µM (active)
IC50 [2]: > 80 µM (inactive)
AC50 [3]: 1.46 µM (active)
AC50 [4]: 0.358 µM (active)
AC50 [5]: 2.09 µM (active)
AC50 [6]: 1.99 µM (active)
AC50 [7]: 1.16 µM (active)
AC50 [8]: 4.71 µM (active)

Structure (SMILES): COc1cccc2c1C(=O)c1c(O)c3c(c(O)c1C2=O)C[C@@](O)(C(=O)CO)C[C@@H]3O[C@H]1C[C@H](N)[C@H](O[C@@H]2CCCCO2)[C@H](C)O1 [PIRARUBICIN]
IC50 [9]: 0.0795 µM (active)
IC50 [10]: > 20 µM (inactive)
IC50 [11]: 1.28 µM (active)
IC50 [12]: 1.01 µM (active)
IC50 [13]: 2.01 µM (active)
IC50 [14]: 0.911 µM (active)
IC50 [15]: 0.0806 µM (active)

Structure (SMILES): COc1ccc2cc(CN(CCc3ccccc3)Cc3nnnn3CC3CCCO3)c(O)nc2c1 (stereo not drawn)
IC50 (cells [16]): > 29.9 µM (inactive)
EC50 [17]: 4.42 µM (active)
EC50 (cells [18]): > 29.9 µM (inactive)
IC50 [19]: 8.83 µM (active)

Structure (SMILES): Oc1ccc(/C=N\Nc2cnnc(O)c2Cl)c(O)c1
IC50 (cells [16]): > 29.9 µM (inactive)
IC50 (Large T antigen): 15.7 µM (active)
EC50 [17]: 1.16 µM (active)
EC50 (cells [18]): > 29.9 µM (inactive)
IC50 [19]: 24.5 µM (inactive)

AC50 [20]: > 30 µM (inactive)
Structure (SMILES): CC(C)(C)NC(=O)CSc1nc2cccnc2n1C1CCCCC1

Structure (SMILES): OC[C@@H]1Nc2ccc(-c3cccc(F)c3)cc2[C@@H]2[C@H]1CCN2Cc1ccncc1
AC50 [21]: 0.638 µM (active)
AC50 [22]: 29.5 µM (active)
AC50 [23]: 2.02 µM (active)
AC50 [24]: 1.27 µM (active)
AC50 [25]: 27.6 µM (active)
AC50 [26]: 0.814 µM (active)

AC50 [20]: > 30 µM (inactive)
Structure (SMILES): CC(C)C[C@H](NC(=O)C1CCN(C(=O)[C@H](Cc2ccccc2)NC(=O)OC(C)(C)C)CC1)C(=O)O

Structure (SMILES): CC(=O)c1ccc(Nc2cc(C)nc3c(C)cc(C)cc23)cc1
AC50 [3]: 40.3 µM (active)
AC50 (INS1): 5.22 µM (active)
AC50 [27]: 23.9 µM (active)
AC50 [28]: 2.54 µM (active)
AC50 [29]: 1.9 µM (active)

Structure (SMILES): CC(C)N1C[C@H](CNCc2ccc(Cl)cc2)Oc2c(NC(=O)c3ccncc3)cccc2C1=O
AC50 [30]: 0.731 µM (active)

From ChEMBL document CHEMBL1201862, “PubChem BioAssay data set” (2004)
